Results published in patent US20030152646A1, “Method of treating conditions caused by activated microglia” (priority 2001, published 2003).
“Also recorded” adds a separate entry of the source.

Tests used:
[1] = test system: nitric oxide (NO) production; test: Nitrite measurement (Griess reaction) in LPS-treated microglia-neuron co-cultures; type: cell-based, rat; details: for effect on nitrite accumulation / NO production: 100 ng/ml LPS, 48 hours, same concentrations as for neuron survival
[2] = test system: nitric oxide (NO) production; test: Nitrite measurement in microglia-neuron co-cultures treated with Aβ1-42 and interferon γ; type: cell-based, rat; details: 5 μM Aβ1-42 + 10 ng/ml interferon γ, 48 hour; FeTMPyP 2 μM
Procedure: Nitric oxide (NO) production was determined indirectly through the assay of nitrite (NO2), a stable metabolite of NO, based on the Griess reaction (Huygen, 1970; Green et al., 1982; Ding et al., 1988). Briefly, a 50 μl aliquot of conditioned media was mixed with an equal volume of Griess reagent (0.1% N-(1-naphthyl)ethylenediamine dihydrochloride, 1% sufanilamide, and 2.5% phosphoric acid, all from Sigma), and incubated for 10 min at 22° C. The absorbance was read at 550 nm on a microtiter plate reader (Spectra MAX 250, Molecular Devices, Sunnyvale, Calif.). Nitrite concentrations were calculated from a standard curve of NaNO2 (Sigma) ranging from 0 to 100 μM. Background NO2 was subtracted from the experimental values.

primary cortical neurons = test: Neuron survival of primary cortical neurons treated with SIN-1; type: cell-based, rat; details: 50 μM SIN-1, 2 μM FeTMPyP, 48 hr
Procedure: To validate the specificity and effectiveness of the peroxynitrite decomposition catalyst FeTMPyP, this catalyst was further tested with neuron cultures treated with SIN 1, an exogenous NO and superoxide donor that, consequently, generates peroxynitrite under physiological conditions [Hogg, 1992]. Primary cortical neurons were treated with 50 μM SIN-1 in the presence or absence of 2 μM FeTMPyP for 48 hr.
Neuron cultures were derived from […] (embryonic day 17) Fishes 344 rat cerebral cortices detailed previously (Banker and Goslin, 1988; Rozovsky et al., 1994) and plated at 5×10^4 viable cells/well is poly-D-lysine (Sigma) coated 24-well plates (Costar). […]
Following treatment, culture inserts containing microglia were removed and neurons were stained with 10 jig/ml fluorescein diacetate (FDA, Sigma) for 10 min. […] Since neuron deaths occur primarily in the region directly underneath the microglia-containing culture inserts (see FIG. 6D), for quantification, eight images at the center of each well were taken with a Nikon TE300 fluorescent microscope and analyzed with the IP Lab imaging software (version 3.54, Scanalytics, Fairfax, Va.). Viable neurons were quantified by the area covered by green fluorescence, after the establishment of a linear relationship between the numbers of stained cells and the green fluorescent area. […]

[3] = test system: microglia-neuron co-cultures; details: 100 ng/ml LPS
TNF-α secretion = test: TNF-α Elisa of culture supernatants of LPS-treated microglia-neuron co-cultures; type: cell-based, rat; details: 100 ng/ml LPS, 48 hours; for effect on TNF-α secretion: PEN 500 μM, THA 200 μM
Procedure: Levels of secreted TNF-α in culture supernatants were determined by an enzyme-linked immuno-sorbent assay (Elisa) kit following manufacturer's instructions (BioSource International, Camarillo, Calif.).

neurons = test: TUNEL staining of neurons from Aβ1-42-treated microglia-neuron co-cultures; type: cell-based, rat; details: 5 μM Aβ1-42 + 10 ng/ml interferon γ, 24 hours
Procedure: DNA cleavage in apoptotic nuclei was detected with In Situ Cell Death Detection Kit as described by the manufacturer (Roche Molecular Biochemicals, Indianapolis, Ind.). Briefly, cells were fixed with paraformaldehyde (4% in PBS, pH 7.4) and permeablized (0.1% Triton X-100 in 0.1% sodium citrate). After incubation for 1 hr at 37° C. in terminal deoxynucleotidyl transferase (TdT) reaction mixture, signals were visualized under a fluorescence microscope (excitation/emission wavelengths: 450-500 nm/515-565 nm). Samples were further blotted with alkaline phosphatase-conjugated anti-fluorescein antibody. Following color reaction, samples were analyzed under a light microscope.

[4] = test system: microglia-neuron co-cultures
microglia cells = test: Superoxide generation by LPS-activated microglia (EPR, DMPO spin trap); type: cell-based, rat; details: 100 ng/ml LPS
Procedure: To monitor the generation of superoxide by activated microglia, Electron Paramagnetic Resonance (EPR) measurements were performed with 5,5-dimethyl-1-pyrroline-N-oxide (DMPO) as a superoxide spin trap. To confirm that the EPR signal is caused by superoxide, either superoxide dismutase (SOD) or DMSO, which competes with DMPO for hydroxyl radical, were added to the microglia cells together with LPS.
For EPR measurements, microglia cells (100,000) with or without LPS treatment were incubated in 200 μl culture medium containing 120 mm DMPO. After 15 minutes, the medium was removed and analyzed by EPR. EPR spectra were recorded on a Bruker ECS106 spectrometer with the following settings: receiver gain: 5×10^5; microwave power: 20 mW; microwave frequency: 9.81 GHz; modulation amplitude: 1 G; time constant: 1.3 seconds; scan time: 87 seconds; scan width: 80 G. The DMPO-OH signal generated from […] were quantified by comparison with TEMPOL standard after doubly integration of both signals. All scans shown are an accumulation of 7 scans.

`C[n+]1ccc(-c2c3nc(c(-c4cc[n+](C)cc4)c4ccc([n-]4)c(-c4cc[n+](C)cc4)c4nc(c(-c5cc[n+](C)cc5)c5ccc2[n-]5)C=C4)C=C3)cc1.[Cl-].[Fe+3]` [FeTMPyP, 5,10,15,20-Tetrakis(N methyl-4′-pyridyl)porphinato iron (III) chloride] was tested, and the “effect on nitrite accumulation / NO production” value [1] was “without decreasing NO production”, the “effect on nitric oxide production” value [2] was “without compromising nitric oxide production” and the “protection of neurons against SIN-1 induced peroxynitrite toxicity” value (primary cortical neurons) was “effectively protected”. The “optimal concentration of protective action against LPS-induced microglial neurotoxicity” value ([3]; dose-dependent) was 2 µM.
For `Cl.O=S(=O)([O-])c1ccc(-c2c3nc(c(-c4ccc(S(=O)(=O)O)cc4)c4ccc([nH]4)c(-c4ccc(S(=O)(=O)O)cc4)c4nc(c(-c5ccc(S(=O)(=O)O)cc5)c5ccc2[nH]5)C=C4)C=C3)cc1.[Fe]` [FeTPPS, 5,10,15,20-Tetrakis(4-sulfonatophenyl)prophyrinato iron (III) chloride], the “effect on nitrite accumulation / NO production” value [1] was “without decreasing NO production”.
For `CNC(=N)NCCC[C@H](N)C(=O)O` [L-NMMA, N^G-Monomethyl-L-arginine], the “effect on nitrite accumulation / NO production” value [1] was “completely blocked”, the “reduction of TNF-α secretion” value (TNF-α secretion; 1 mM L-NMMA) was 35% and the viable neurons ([3]; 48 hours, 1 mM L-NMMA added at the same time with LPS) was 92.4±7.4 % of control.
In the case of `CC(=O)CCCCn1c(=O)c2c(ncn2C)n(C)c1=O` [pentoxifylline], the “effect on nitrite accumulation / NO production” value [1] is reported as “little effect; also recorded: did not decrease nitrite/NO generation” and the “effect on TNF-α secretion” value (TNF-α secretion) is reported as “inhibits”.
With `O=C1CCC(N2C(=O)c3ccccc3C2=O)C(=O)N1` (stereo not drawn) [thalidomide] the “effect on nitrite accumulation / NO production” value [1] was “inhibited” and the “effect on TNF-α secretion” value (TNF-α secretion) was “inhibited”.
For “Aβ1-42: amyloid β-peptide 1-42, aggregated (fibrillar), applied with 10 ng/ml interferon γ as priming factor”, the TUNEL-labeled neurons (neurons) was “majority”, the death of neurons [4] was “over 80%” and the “neurotoxicity in the absence of microglia” value [4] was “did not result in neurotoxicity”.
In the case of Lipopolysaccharide [LPS], the “peak of superoxide generation” value (microglia cells) is reported as 12 h, the “beginning of nitrite generation” value [1] is reported as 6 h and the “peak of nitrite generation” value [1] is reported as “approximately 14 hours”.
